Measured values: patent US9365540B2, “Benzimidazole derivatives as MCH receptor antagonists” (Takeda Pharmaceutical Company Limited, priority 2012, dated 2016)

What was measured:
[1] = system: HepG2 cells; experiment: PLsis (phospholipidosis) inducing potential, NBD-PE uptake; assay type: cell-based; settings: 24 hr exposure, relative value to 10 μM Amiodarone, maximum value per unit concentration
Method: Evaluation of PLsis Inducing Potential
DMEM medium, L-glutamine, penicillin-streptomycin, pyruvic acid, and N-(7-nitrobenz-2-oxa-1,3-diazol-4-yl)-1,2-hexadecanoyl-sn-glycero-3-phosphoethanolamine triethylammonium salt (NBD-PE) were purchased from Invitrogen Corporation. As bovine serum albumin (BSA), a product of Thermo Trace Ltd. (Melbourne, Australia) was used, and as Amiodarone, a product of ICN (Costa Mesa, Calif.) was used. A test compound was used in the form of a 10 mM DMSO solution.
FBS was added at a final concentration of 5 vol % to DMEM medium supplemented with L-glutamine, pyruvic acid and penicillin-streptomycin and subjected to the experiment. Culture was performed using 5% carbon dioxide gas-95% air as a gas phase in a CO2 incubator at 37° C. HepG2 cells were suspended in a culture medium at 50×10^4 cells/mL, plated in a 96 well plate at 50 μL/well and precultured for 24 hr. After preculture, the culture medium was removed, a culture medium containing 60 μM NBD-PE was added at 50 μL/well, and a culture medium containing 0.6 μM or 20 μM test compounds were each added at 50 μL/well to HepG2 cells, and the cells were cultured for 24 hr. As a positive control, Amiodarone was used at a final concentration of 10 μM.
After exposure to the test compound for 24 hr, the fluorescence intensity (Ex. 485 nm, Em. 538 nm) of NBD-PE uptaken by the cells was measured by a fluorometer. The measurement value with addition of 0 μM test compound solution was subtracted as a blank, a relative value to the measurement 5 value with addition of 10 μM Amiodarone was calculated, and the maximum value per unit concentration of the test compound was obtained as a phospholipidosis (PLsis) inducing potential.

[2] = system: male diet-induced obese F344/Jcl rats; experiment: Anorectic effect in male diet-induced obese F344/Jcl rats; assay type: in vivo, rat; settings: Rattus norvegicus, po, 48 h, 5 mg/mL suspension at 2 mL/kg, two administrations, food intake for 2 days vs control group, read-out: Food intake suppression rate (%)
Method: Evaluation of Anorectic Effect Using Male Diet-Induced Obese F344/Jcl Rats
Male diet-induced obese F344/Jcl rats (44-50 weeks old) fed with a high-fat diet (D12451: Research Diets) from 5 weeks old were used. From before the start of experiment, the rats were singly housed, given a powder high-fat diet (D12451M: Research Diets), and habituated to oral administration with tap water. The food intake from the evening of the day before the start of experiment to the next morning was measured, and the rats were grouped based on both the food intake and the body weight of the previous day. In the evening of the day of the start of experiment and the next day, 0.5% methylcellulose solution was orally administered to the control group, and 0.5% methylcellulose suspension (5 mg/mL) of the test compound was orally administered to the compound administration group at 2 mL/kg (6 per group for both control group and compound administration group). The food intake for 2 days from the initial administration was measured. The food intake inhibition rate of each compound administration group to the control group was calculated.

[3] = target: T1, human MCH receptor 1 (MCHR1) (Homo sapiens, UniProt Q99705); experiment: human MCH receptor 1 (MCHR1) competitive binding assay with [125I]-MCH(4-19); settings: test compound 0.1 μM, human MCHR1-expressing CHO cell membrane fraction, read-out: Binding inhibition rate % (0.1 μM)
T1 construct: expressed in transfected cells; host or cells: CHO cell clone 57 (membrane fraction)
T1 sequence (Q99705 whole entry): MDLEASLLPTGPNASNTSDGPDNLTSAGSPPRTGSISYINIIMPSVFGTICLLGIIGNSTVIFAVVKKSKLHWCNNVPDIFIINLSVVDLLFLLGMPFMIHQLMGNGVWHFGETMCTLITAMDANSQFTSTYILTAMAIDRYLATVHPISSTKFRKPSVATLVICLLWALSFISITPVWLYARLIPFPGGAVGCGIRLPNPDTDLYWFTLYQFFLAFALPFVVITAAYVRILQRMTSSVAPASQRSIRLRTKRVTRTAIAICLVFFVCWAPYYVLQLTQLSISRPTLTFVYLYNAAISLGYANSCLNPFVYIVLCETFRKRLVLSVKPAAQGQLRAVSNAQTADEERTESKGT
Procedure, shortened: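 Membranes from CHO cells expressing human MCHR1 incubated with [125I]-MCH(4-19) and test compound in 20 mM Tris-HCl pH 7.5/5 mM EDTA with protease inhibitors, 1 hr at room temperature. Bound radioactivity collected on PEI-treated GF/C filters; % inhibition at 0.1 μM compound, nonspecific binding set with cold MCH(1-19).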

| inhibition at 0.1 µM [3] | Compound | PLsis inducing potential [1] | inhibition in vivo at 5000 µg/mL, 10 mg/kg [2] |
| --- | --- | --- | --- |
| 80% | Cn1c(C2CC2)nc2ccc(-n3ccc(OCc4ccc(F)cc4)cc3=O)cc21 [Example 2, 1-(2-Cyclopropyl-1-methyl-1H-benzimidazol-6-yl)-4-((4-fluorobenzyl)oxy)pyridin-2(1H)-one] | 2.2 | 27.8% |
| 74% | CCc1nc2ccc(-n3ccc(OCc4ccc(F)cc4)cc3=O)cc2n1C [Example 63, 1-(2-Ethyl-1-methyl-1H-benzimidazol-6-yl)-4-((4-fluorobenzyl)oxy)pyridin-2(1H)-one] | 1.6 | 45.5% |
| 57% | Cc1nc2ccc(-n3ccc(OCc4ccc(F)cc4)cc3=O)cc2n1C [Example 254, 1-(1,2-Dimethyl-1H-benzimidazol-6-yl)-4-((4-fluorobenzyl)oxy)pyridin-2(1H)-one] | 1.7 | 38.7% |
